# Measurements as given in PubChem BioAssay (NCI).
# Where “and” joins values, the source holds several entries; their conditions need not be identical. Equal entries are not always repeated.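 Five concentrations, 48 hours, 96-well plates. GI50: concentration for 50% inhibition of growth. TGI: total growth inhibition.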
# System: MCF7 breast
# Assay: NCI tumour cell line growth inhibition, 48 h
Structure (SMILES),GI50 [µM],TGI [µM]
COC(=O)C1=CN(CC2=CC(=O)C(C)=CC2=O)C=C(C(=O)OC)C1c1cccc(OC)c1,16,> 100

# System: SNB-75 CNS
# Assay: NCI tumour cell line growth inhibition, 48 h
Structure (SMILES),GI50 [µM],TGI [µM]
CCc1ccc(/C=C/c2ccc(O)c3ncccc23)[n+](C)c1,> 100,> 100
Cc1ccc(Nc2oc(-c3ccccc3)nc2[P+](c2ccccc2)(c2ccccc2)c2ccccc2)cc1,1.15,3.71
CS(=O)(=O)Nc1cc(-c2ccc3ncnc(Nc4c(Cl)ccc5c4OCO5)c3c2)cnc1Cl,,0.0972
COc1ccccc1Nc1ncc(-c2ccccc2)o1,> 25,> 25
Nc1ccn(C2OC(CO)C(O)C2O)c(=O)n1 (configuration not stated),,> 500
CN(C)c1ccc(N=Nc2ccccn2)c(O)c1,0.453,96.9
CN1CC[C@@H](c2c(O)cc(O)c3c(=O)cc(-c4ccc(C(F)(F)F)cc4Cl)oc23)[C@@H]1CO,6.89,22
O=C(NNc1ccccc1)C(=O)NNc1ccccc1,11.6,> 100
Nc1c(C(=O)c2ccccc2)cnn1-c1ccc(F)cc1,> 25,> 25
COc1cc2c3c(c1OC)-c1cc4c(cc1CC3(C#N)N(C(=O)c1ccccc1)CC2)OCO4 (configuration not stated),,28.1
CCOC(=O)c1c(-c2ccc(OC)cc2)c(C#N)c2c(C#N)c(N)nn2c1N,1.84,7.59
COC(=O)C1=CN(CC2=CC(=O)C(C)=CC2=O)C=C(C(=O)OC)C1c1cccc(OC)c1,31,> 100

# System: K-562 leukemia
# Assay: NCI tumour cell line growth inhibition, 48 h
Structure (SMILES),GI50,TGI [µM]
CCc1ccc(/C=C/c2ccc(O)c3ncccc23)[n+](C)c1,0.517 µM,> 100
Cc1ccc(Nc2oc(-c3ccccc3)nc2[P+](c2ccccc2)(c2ccccc2)c2ccccc2)cc1,0.324 µM,1.44
CS(=O)(=O)Nc1cc(-c2ccc3ncnc(Nc4c(Cl)ccc5c4OCO5)c3c2)cnc1Cl,0.484 µM,> 48.4
COc1ccccc1Nc1ncc(-c2ccccc2)o1,> 25 µM,> 25
Nc1ccn(C2OC(CO)C(O)C2O)c(=O)n1 (configuration not stated),0.477 µM and 0.464 µM and 4.64 µM,> 500
CN(C)c1ccc(N=Nc2ccccn2)c(O)c1,0.355 µM,> 100
CN1CC[C@@H](c2c(O)cc(O)c3c(=O)cc(-c4ccc(C(F)(F)F)cc4Cl)oc23)[C@@H]1CO,29.8 µM,85.6
O=C(NNc1ccccc1)C(=O)NNc1ccccc1,0.396 µM,> 100
Nc1c(C(=O)c2ccccc2)cnn1-c1ccc(F)cc1,> 25 µM,> 25
COc1cc2c3c(c1OC)-c1cc4c(cc1CC3(C#N)N(C(=O)c1ccccc1)CC2)OCO4 (configuration not stated),,> 100
CCOC(=O)c1c(-c2ccc(OC)cc2)c(C#N)c2c(C#N)c(N)nn2c1N,1.18 µM,> 100
COC(=O)C1=CN(CC2=CC(=O)C(C)=CC2=O)C=C(C(=O)OC)C1c1cccc(OC)c1,3.84 µM,> 35.6

# System: SR leukemia
# Assay: NCI tumour cell line growth inhibition, 48 h
Structure (SMILES),GI50 [µM],TGI
CCc1ccc(/C=C/c2ccc(O)c3ncccc23)[n+](C)c1,2.76,> 25.9 µM
Cc1ccc(Nc2oc(-c3ccccc3)nc2[P+](c2ccccc2)(c2ccccc2)c2ccccc2)cc1,0.698,2.44 µM
CS(=O)(=O)Nc1cc(-c2ccc3ncnc(Nc4c(Cl)ccc5c4OCO5)c3c2)cnc1Cl,0.325,3.41 µM
COc1ccccc1Nc1ncc(-c2ccccc2)o1,> 25,> 25 µM
Nc1ccn(C2OC(CO)C(O)C2O)c(=O)n1 (configuration not stated),,> 100 µM and > 29.3 µM and 53.7 µM
CN(C)c1ccc(N=Nc2ccccn2)c(O)c1,0.123,> 100 µM
CN1CC[C@@H](c2c(O)cc(O)c3c(=O)cc(-c4ccc(C(F)(F)F)cc4Cl)oc23)[C@@H]1CO,3.21,17 µM
O=C(NNc1ccccc1)C(=O)NNc1ccccc1,0.919,> 100 µM
Nc1c(C(=O)c2ccccc2)cnn1-c1ccc(F)cc1,> 25,> 25 µM
COc1cc2c3c(c1OC)-c1cc4c(cc1CC3(C#N)N(C(=O)c1ccccc1)CC2)OCO4 (configuration not stated),,> 100 µM
CCOC(=O)c1c(-c2ccc(OC)cc2)c(C#N)c2c(C#N)c(N)nn2c1N,2.05,> 100 µM
COC(=O)C1=CN(CC2=CC(=O)C(C)=CC2=O)C=C(C(=O)OC)C1c1cccc(OC)c1,4.74,35 µM

# System: OVCAR-5 ovarian
# Assay: NCI tumour cell line growth inhibition, 48 h
Structure (SMILES),GI50 [µM],TGI
CCc1ccc(/C=C/c2ccc(O)c3ncccc23)[n+](C)c1,> 100,> 100 µM
Cc1ccc(Nc2oc(-c3ccccc3)nc2[P+](c2ccccc2)(c2ccccc2)c2ccccc2)cc1,1.63,4.38 µM
CS(=O)(=O)Nc1cc(-c2ccc3ncnc(Nc4c(Cl)ccc5c4OCO5)c3c2)cnc1Cl,0.164,2.1 µM
COc1ccccc1Nc1ncc(-c2ccccc2)o1,> 25,> 25 µM
Nc1ccn(C2OC(CO)C(O)C2O)c(=O)n1 (configuration not stated),,> 100 µM and 392 µM and > 500 µM
CN(C)c1ccc(N=Nc2ccccn2)c(O)c1,0.992,> 100 µM
CN1CC[C@@H](c2c(O)cc(O)c3c(=O)cc(-c4ccc(C(F)(F)F)cc4Cl)oc23)[C@@H]1CO,14.1,59.3 µM
O=C(NNc1ccccc1)C(=O)NNc1ccccc1,> 100,> 100 µM
Nc1c(C(=O)c2ccccc2)cnn1-c1ccc(F)cc1,> 25,> 25 µM
COc1cc2c3c(c1OC)-c1cc4c(cc1CC3(C#N)N(C(=O)c1ccccc1)CC2)OCO4 (configuration not stated),,> 56.2 µM
CCOC(=O)c1c(-c2ccc(OC)cc2)c(C#N)c2c(C#N)c(N)nn2c1N,5.65,> 100 µM
COC(=O)C1=CN(CC2=CC(=O)C(C)=CC2=O)C=C(C(=O)OC)C1c1cccc(OC)c1,19,42 µM

# System: MALME-3M melanoma
# Assay: NCI tumour cell line growth inhibition, 48 h
Structure (SMILES),GI50 [µM],TGI [µM]
CCc1ccc(/C=C/c2ccc(O)c3ncccc23)[n+](C)c1,13.7,> 100
Cc1ccc(Nc2oc(-c3ccccc3)nc2[P+](c2ccccc2)(c2ccccc2)c2ccccc2)cc1,0.459,1.43
CS(=O)(=O)Nc1cc(-c2ccc3ncnc(Nc4c(Cl)ccc5c4OCO5)c3c2)cnc1Cl,0.0525,0.515
COc1ccccc1Nc1ncc(-c2ccccc2)o1,> 25,> 25
Nc1ccn(C2OC(CO)C(O)C2O)c(=O)n1 (configuration not stated),0.0741,
CN(C)c1ccc(N=Nc2ccccn2)c(O)c1,1.44,> 100
CN1CC[C@@H](c2c(O)cc(O)c3c(=O)cc(-c4ccc(C(F)(F)F)cc4Cl)oc23)[C@@H]1CO,18.4,36.9
O=C(NNc1ccccc1)C(=O)NNc1ccccc1,> 100,> 100
Nc1c(C(=O)c2ccccc2)cnn1-c1ccc(F)cc1,> 25,> 25
COc1cc2c3c(c1OC)-c1cc4c(cc1CC3(C#N)N(C(=O)c1ccccc1)CC2)OCO4 (configuration not stated),,97.7
CCOC(=O)c1c(-c2ccc(OC)cc2)c(C#N)c2c(C#N)c(N)nn2c1N,4.05,82.7
COC(=O)C1=CN(CC2=CC(=O)C(C)=CC2=O)C=C(C(=O)OC)C1c1cccc(OC)c1,6.81,16.1
